Experimental data: patent US20200179327A1, “USE OF PHENOLIC COMPOUNDS FROM OLEA EUROPAEA” (McCord Research, Inc., priority 2017, published 2020)

Tests used:
[1] = biological target: T1, lysine-specific demethylase 1 (LSD1) (Homo sapiens, UniProt O60341); assay: EpiQuik Histone Demethylase LSD1 inhibitor screening assay; assay type: biochemical; conditions: 10-dose, 2-fold dilution from 200 μM; read-out: LSD1 enzyme activity inhibition IC50
T1 construct: purchased EpiGentek

[2] = biological target: T2, monoamine oxidase A (MAO-A) (Homo sapiens, UniProt P21397); assay: Monoamine Oxidase A (MAO-A) Inhibitor Screening Kit; assay type: biochemical; conditions: 10-dose, 2-fold dilution from 100 μM; substrate tyramine; read-out: MAO-A inhibition IC50
T2 construct: purchased Sigma-Aldrich
T2 sequence (P21397 1-527): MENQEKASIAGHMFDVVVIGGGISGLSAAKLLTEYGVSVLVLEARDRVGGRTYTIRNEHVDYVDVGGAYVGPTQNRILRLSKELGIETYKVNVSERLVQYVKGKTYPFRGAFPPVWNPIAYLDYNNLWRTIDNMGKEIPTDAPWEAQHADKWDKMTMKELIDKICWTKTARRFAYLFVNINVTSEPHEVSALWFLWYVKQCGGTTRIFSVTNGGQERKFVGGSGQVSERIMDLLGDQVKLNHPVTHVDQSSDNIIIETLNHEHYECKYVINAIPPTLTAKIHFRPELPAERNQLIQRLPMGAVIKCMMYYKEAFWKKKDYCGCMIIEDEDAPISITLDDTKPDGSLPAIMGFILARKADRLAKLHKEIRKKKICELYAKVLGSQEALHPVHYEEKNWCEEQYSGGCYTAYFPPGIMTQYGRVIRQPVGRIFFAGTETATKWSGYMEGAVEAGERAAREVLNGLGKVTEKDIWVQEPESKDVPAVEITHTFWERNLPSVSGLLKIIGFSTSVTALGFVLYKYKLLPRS
Description: The production of H2O2 generated by the oxidative deamination of the MAO substrate tyramine was measured fluorometrically using the CLARIOstar microplate reader at Ex/Em=535/587 nm. Data is represented as the percentage of MAO enzymatic activity inhibition relative to the log of the compound and a curve fit for the control compound. Corresponding IC50 values were calculated.

COX-1 [3] = biological target: T3, COX-1 (Ovis aries, UniProt P05979); assay: COX-1/2 inhibitor screening kit (BioVision), COX-1; assay type: biochemical; conditions: 10-dose, 2-fold dilution from 1000 μM; read-out: COX-1 inhibition IC50
T3 construct: purchased BioVision
T3 sequence (P05979 25-600): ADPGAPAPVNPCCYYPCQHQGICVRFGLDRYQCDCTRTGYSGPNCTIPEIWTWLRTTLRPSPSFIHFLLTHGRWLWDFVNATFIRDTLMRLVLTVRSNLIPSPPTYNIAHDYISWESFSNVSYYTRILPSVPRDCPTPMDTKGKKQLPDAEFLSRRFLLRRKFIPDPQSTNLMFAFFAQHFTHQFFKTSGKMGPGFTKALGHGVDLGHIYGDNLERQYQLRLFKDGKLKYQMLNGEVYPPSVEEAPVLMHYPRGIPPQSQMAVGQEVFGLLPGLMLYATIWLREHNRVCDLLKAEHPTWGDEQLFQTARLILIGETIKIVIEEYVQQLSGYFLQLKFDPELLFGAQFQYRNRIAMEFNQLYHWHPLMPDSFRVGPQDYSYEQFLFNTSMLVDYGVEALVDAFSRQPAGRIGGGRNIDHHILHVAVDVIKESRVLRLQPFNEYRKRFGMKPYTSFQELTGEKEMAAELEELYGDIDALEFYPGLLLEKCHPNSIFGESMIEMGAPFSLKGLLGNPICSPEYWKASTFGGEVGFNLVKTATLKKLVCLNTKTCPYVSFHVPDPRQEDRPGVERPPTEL
Description: (§1) Inhibition of individual COX-1 and COX-2 enzymes by MMBHTE and oleocanthal was measured using the COX-1/2 inhibitor screening kit (BioVision, Milpatas, Calif., USA), according to the manufacturer's instructions. […] The production of prostaglandin G2, the intermediate product generated by the COX enzyme in the presence of arachidonic acid is measured by coupling with HRP and COX substrate and fluorescence was measured using the CLARIOstar microplate reader at Ex/Em=535/587 nm. Data is represented at the percentage of COX enzymatic activity inhibition relative to the log of the compound and a curve fit for the control compound. Corresponding IC50 values were calculated.
(§2) FIG. 6A and FIG. 6B show the inhibition activities of MMBHTE and Oleocanthal on COX-1 and COX-2, respectively. The data shown in FIG. 6A and FIG. 6B indicates all the test samples fell within the detectable range. The data shown in FIG. 6A and FIG. 6B is represented as the percentage of COX enzymatic activity inhibition relative to the log of the concentrations and best-fit curves for MMBHTE and Oleocanthal. Corresponding IC50 values were calculated. […] Therefore, MMBHTE is a […] COX-1 and COX-2 inhibitor.

COX-2 [4] = biological target: T4, COX-2 (Homo sapiens, UniProt P35354); assay: COX-1/2 inhibitor screening kit (BioVision), COX-2; assay type: biochemical; conditions: 10-dose, 2-fold dilution from 1000 μM; read-out: COX-2 inhibition IC50
T4 construct: purchased BioVision
T4 sequence (P35354 18-604): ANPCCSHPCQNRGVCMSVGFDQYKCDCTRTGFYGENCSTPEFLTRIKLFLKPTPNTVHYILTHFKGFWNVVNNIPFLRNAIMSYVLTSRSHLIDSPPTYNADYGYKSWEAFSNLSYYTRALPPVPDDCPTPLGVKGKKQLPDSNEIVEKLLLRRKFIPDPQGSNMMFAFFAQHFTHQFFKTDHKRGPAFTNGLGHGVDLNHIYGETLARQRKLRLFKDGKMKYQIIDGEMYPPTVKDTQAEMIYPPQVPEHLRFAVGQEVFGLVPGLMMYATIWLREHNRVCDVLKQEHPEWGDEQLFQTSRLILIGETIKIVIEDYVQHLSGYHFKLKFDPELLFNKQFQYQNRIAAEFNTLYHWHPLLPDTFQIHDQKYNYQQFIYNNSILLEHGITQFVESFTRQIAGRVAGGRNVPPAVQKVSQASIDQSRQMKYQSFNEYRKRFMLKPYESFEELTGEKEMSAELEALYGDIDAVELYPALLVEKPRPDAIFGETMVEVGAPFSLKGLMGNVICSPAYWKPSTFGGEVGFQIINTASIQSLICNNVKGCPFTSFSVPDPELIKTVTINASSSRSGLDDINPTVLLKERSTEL
Description: as §1, §2

COX-2 [5] = biological target: T4, COX-2; conditions: in vitro; cited from earlier work
lipoxygenase = conditions: in vitro; cited from earlier work
COX-1 [6] = biological target: COX-1 (Homo sapiens, UniProt P23219); conditions: in vitro; cited from earlier work
[7] = tested on: human aortic endothelial cells from patient with Type II diabetes (DII-HAEC); assay: Cell viability/proliferation, Cell-Titer Blue, DII-HAEC; assay type: cell-based; conditions: 0-800 μM, 24, 48 or 72 hours
Description: (§3) Human peripheral blood mononuclear cells (PBMCs) were fractionated using the Ficoll Plaque fractionation method from whole blood obtained from the Australian Red Cross Blood Bank (ARCB) under ethic approval (#304/12). Cells were harvested fresh on the day of the experiments and maintained in complete-RPMI-1640 medium supplemented with 10% FBS, 2 mM L-glutamine and 20 μg/mL gentamicin at 37° C., 5% (v/v) CO2. Human aortic endothelial cells (HAECs, ATCC) and the equivalent cells taken for patients with Type II diabetes (DII-HAECs, ATCC) were cultured in endothelial cell growth medium (ECM) supplemented with 100 U/ml penicillin, 100 μg/ml streptomycin, 0.25 μg/ml fungizone, 2 mM L-glutamine, 5 U/ml heparin, 30-50 μg/ml endothelial cell growth supplement (Technoclone, Vienna, Austria). All cells were passaged by typsination and seeded into 6 well culture dishes at cell densities of 1×10^6 cells per well; at 37° C., 5% (v/v) CO2. […] Cell viability was measured using the Cell-Titer Blue® Assay kit (Promega, Madison, Wis., USA) according to the manufacturer's instructions. Cell-Titer Blue reagent was added to each well and incubated for 4 hours at 37° C., 5% CO2, before reading fluorescence intensity (550 nm excitation; 615 nm emission) using the CLARIOstar (BMG LABTECH, Offenburg, Germany) microplate reader. […]

[8] = tested on: peripheral blood mononuclear cells (PBMC); assay: Cell viability/proliferation, Cell-Titer Blue, PBMC; assay type: cell-based, human; conditions: 0-800 μM, 24, 48 or 72 hours
Description: as §3

[9] = tested on: primary skin fibroblasts (BJ); assay: Cell viability/proliferation, Cell-Titer Blue, BJ; assay type: cell-based, human; conditions: 0-800 μM, 24, 48 or 72 hours
[10] = tested on: primary human aortic endothelial cells from a healthy patient (h-HAEC); assay: Cell viability/proliferation, Cell-Titer Blue, h-HAEC; assay type: cell-based; conditions: 0-800 μM, 24, 48 or 72 hours
Description: as §3

Chain of COX-1 (Homo sapiens, UniProt P23219) (P23219 24-599): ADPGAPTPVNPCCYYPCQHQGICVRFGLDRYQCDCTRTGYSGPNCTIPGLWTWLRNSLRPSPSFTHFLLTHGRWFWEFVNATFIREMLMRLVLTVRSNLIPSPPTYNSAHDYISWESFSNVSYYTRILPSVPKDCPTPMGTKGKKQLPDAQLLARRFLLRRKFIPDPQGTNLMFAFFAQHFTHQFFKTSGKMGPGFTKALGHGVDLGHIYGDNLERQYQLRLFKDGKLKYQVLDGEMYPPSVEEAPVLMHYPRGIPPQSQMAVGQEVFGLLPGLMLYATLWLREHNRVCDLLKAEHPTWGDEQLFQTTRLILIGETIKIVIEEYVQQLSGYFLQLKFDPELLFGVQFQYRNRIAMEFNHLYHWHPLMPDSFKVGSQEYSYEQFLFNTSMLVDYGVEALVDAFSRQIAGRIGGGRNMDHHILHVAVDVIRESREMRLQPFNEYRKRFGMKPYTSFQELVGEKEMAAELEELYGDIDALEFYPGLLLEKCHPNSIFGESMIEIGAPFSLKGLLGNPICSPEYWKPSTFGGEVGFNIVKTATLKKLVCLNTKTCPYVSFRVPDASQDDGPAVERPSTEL

Structure (SMILES)	IC50 [1]	IC50 [2]	IC50 (COX-1 [3])	IC50 (COX-2 [4])	inhibition of COX-2 (COX-2 [5])	effect on lipoxygenase (lipoxygenase)	inhibition of COX-1 (COX-1 [6])	toxicity profile (cell viability) [7]	toxicity profile (cell viability) [8]	toxicity profile (cell viability) [9]	toxicity profile (cell viability) [10]
OCCc1ccc(O)c(O)c1 [HT, hydroxytyrosol, reference compound]	21.8 nM	39100 ± 31500 nM									
C/C=C(/C=O)[C@@H](CC=O)CC(=O)OCCc1ccc(O)cc1 [Oleocanthal]			430 ± 50 nM	352000 ± 7700 nM	dose-dependent inhibitor	no effect	dose-dependent inhibitor				
COC(=O)[C@H](O)CC(=O)OCCc1ccc(O)c(O)c1 (stereo in doubt) [MMBHTE, methyl malate-β-hydroxytyrosol ester]	11.9 nM	443 ± 158 nM	1720 ± 90 nM	81600 ± 7700 nM				very favorable toxicity profile	very favorable toxicity profile	very favorable toxicity profile	very favorable toxicity profile
